Data reported in PMC5218480 (PLoS ONE, 2017).

Test system: MV-4-11 cells
Assay: Gene expression microarray analysis (Affymetrix PrimeView) and GSEA
Format: cell-based, human
Parameters: RFU PODN (11730768_x_at) / Fold change /veh PODN (11730768_x_at) / RFU LINC00158 (11744669_a_at) / Fold change /veh LINC00158 (11744669_a_at) / RFU DUSP10 (11751237_a_at) / Fold change /veh DUSP10 (11751237_a_at) / RFU ID3 (11757404_x_at) / Fold change /veh ID3 (11757404_x_at) / RFU PLEKHG5 (11737974_s_at) / Fold change /veh PLEKHG5 (11737974_s_at) / RFU LRRC4B (11730491_at) / Fold change /veh LRRC4B (11730491_at) / RFU GIMAP4 (11747438_a_at) / Fold change /veh GIMAP4 (11747438_a_at) / RFU KRT8 (11758183_x_at) / Fold change /veh KRT8 (11758183_x_at) / RFU CNN1 (11734310_a_at) / Fold change /veh CNN1 (11734310_a_at) / RFU VPS37D (11726825_at) / Fold change /veh VPS37D (11726825_at) / RFU C10orf10 (11716522_x_at) / Fold change /veh C10orf10 (11716522_x_at) / RFU KIR2DL2 /// KIR2DL4 /// KIR2DL5A /// KIR2DL5B /// KIR2DS1 /// KIR2DS2 /// KIR2DS3 /// KIR2DS4 /// KIR3DL3 /// KIR3DL3 /// KIR3DS1 (11738374_at) / Fold change /veh KIR2DL2 /// KIR2DL4 /// KIR2DL5A /// KIR2DL5B /// KIR2DS1 /// KIR2DS2 /// KIR2DS3 /// KIR2DS4 /// KIR3DL3 /// KIR3DL3 /// KIR3DS1 (11738374_at) / RFU C1QL1 (11718748_at) / Fold change /veh C1QL1 (11718748_at) / RFU TMPRSS4 (11747572_a_at) / Fold change /veh TMPRSS4 (11747572_a_at) / RFU HAMP (11756126_x_at) / Fold change /veh HAMP (11756126_x_at) / RFU RNFT2 (11725882_a_at) / Fold change /veh RNFT2 (11725882_a_at) / RFU NR4A2 (11747474_a_at) / Fold change /veh NR4A2 (11747474_a_at) / RFU ABCC12 (11746883_a_at) / Fold change /veh ABCC12 (11746883_a_at) / RFU TMEM136 (11760407_x_at) / Fold change /veh TMEM136 (11760407_x_at) / RFU CLDN22 /// WWC2 (11732394_at) / Fold change /veh CLDN22 /// WWC2 (11732394_at) / RFU HLA-DPB1 (11760878_x_at) / Fold change /veh HLA-DPB1 (11760878_x_at) / RFU SPINT1 (11716480_a_at) / Fold change /veh SPINT1 (11716480_a_at) / RFU GAP43 (11754022_s_at) / Fold change /veh GAP43 (11754022_s_at) / RFU A4GNT (11735810_at) / Fold change /veh A4GNT (11735810_at) / RFU PRB3 (11715151_x_at) / Fold change /veh PRB3 (11715151_x_at) / RFU TUBB4B (11761932_at) / Fold change /veh TUBB4B (11761932_at) / RFU CAPN14 (11732068_a_at) / Fold change /veh CAPN14 (11732068_a_at) / RFU TMCC2 (11721928_a_at) / Fold change /veh TMCC2 (11721928_a_at) / RFU IRGQ (11745062_a_at) / Fold change /veh IRGQ (11745062_a_at) / RFU FAM174B (11720279_a_at) / Fold change /veh FAM174B (11720279_a_at) / RFU TMPRSS4 (11748680_a_at) / Fold change /veh TMPRSS4 (11748680_a_at) / RFU FAM212B (11763350_a_at) / Fold change /veh FAM212B (11763350_a_at) / RFU PLEKHG5 (11743358_a_at) / Fold change /veh PLEKHG5 (11743358_a_at) / RFU ZSCAN30 (11745921_a_at) / Fold change /veh ZSCAN30 (11745921_a_at) / RFU CMKLR1 (11741424_a_at) / Fold change /veh CMKLR1 (11741424_a_at) / RFU LOC101060620 /// MAPK8IP1 (11723275_at) / Fold change /veh LOC101060620 /// MAPK8IP1 (11723275_at) / RFU SPTSSB (11747773_x_at) / Fold change /veh SPTSSB (11747773_x_at) / RFU PRSS12 (11739890_at) / Fold change /veh PRSS12 (11739890_at) / RFU BIN1 (11741810_x_at) / Fold change /veh BIN1 (11741810_x_at) / RFU WNT11 (11732464_a_at) / Fold change /veh WNT11 (11732464_a_at) / RFU C10orf10 (11716521_a_at) / Fold change /veh C10orf10 (11716521_a_at) / RFU C5orf56 (11738089_at) / Fold change /veh C5orf56 (11738089_at) / RFU CYB561 (11721691_x_at) / Fold change /veh CYB561 (11721691_x_at) / RFU ANKRD19P (11752326_a_at) / Fold change /veh ANKRD19P (11752326_a_at) / RFU OR2T12 /// OR2T33 /// OR2T8 (11738714_s_at) / Fold change /veh OR2T12 /// OR2T33 /// OR2T8 (11738714_s_at) / RFU VCAN (11748164_a_at) / Fold change /veh VCAN (11748164_a_at) / RFU JSRP1 (11732532_at) / Fold change /veh JSRP1 (11732532_at) / RFU KRTAP10-11 (11738290_x_at) / Fold change /veh KRTAP10-11 (11738290_x_at) / RFU MYO3A (11730013_a_at) / Fold change /veh MYO3A (11730013_a_at) / RFU EBF3 (11725865_a_at) / Fold change /veh EBF3 (11725865_a_at) / RFU CAMK2N1 (11719241_x_at) / Fold change /veh CAMK2N1 (11719241_x_at) / RFU C5orf56 (11738088_a_at) / Fold change /veh C5orf56 (11738088_a_at) / RFU OLFML3 (11715873_a_at) / Fold change /veh OLFML3 (11715873_a_at) / RFU LOC100653217 /// NTM (11731650_a_at) / Fold change /veh LOC100653217 /// NTM (11731650_a_at) / RFU MAPK11 (11762145_a_at) / Fold change /veh MAPK11 (11762145_a_at) / RFU FIZ1 (11724087_x_at) / Fold change /veh FIZ1 (11724087_x_at) / RFU OASL (11726364_x_at) / Fold change /veh OASL (11726364_x_at) / RFU SOX15 (11748057_x_at) / Fold change /veh SOX15 (11748057_x_at) / RFU CD79A (11719716_a_at) / Fold change /veh CD79A (11719716_a_at) / RFU HIST1H1D (11736915_at) / Fold change /veh HIST1H1D (11736915_at) / RFU CASKIN2 (11723855_a_at) / Fold change /veh CASKIN2 (11723855_a_at) / RFU LOC730098 (11760151_x_at) / Fold change /veh LOC730098 (11760151_x_at) / RFU OR4N2 (11742367_at) / Fold change /veh OR4N2 (11742367_at) / RFU PRRT2 (11749266_a_at) / Fold change /veh PRRT2 (11749266_a_at) / RFU SNX32 (11753110_a_at) / Fold change /veh SNX32 (11753110_a_at) / RFU CDHR5 (11726645_a_at) / Fold change /veh CDHR5 (11726645_a_at) / RFU RCAN1 (11760418_a_at) / Fold change /veh RCAN1 (11760418_a_at) / RFU FAM167A (11723789_a_at) / Fold change /veh FAM167A (11723789_a_at) / RFU FAM26E (11764081_at) / Fold change /veh FAM26E (11764081_at) / RFU ISYNA1 (11749810_s_at) / Fold change /veh ISYNA1 (11749810_s_at) / RFU ACY1 (11761880_at) / Fold change /veh ACY1 (11761880_at) / RFU 11764098_at / Fold change /veh 11764098_at / RFU SAMD14 (11745864_x_at) / Fold change /veh SAMD14 (11745864_x_at) / RFU NPB (11741838_a_at) / Fold change /veh NPB (11741838_a_at) / RFU TMPRSS6 (11731388_a_at) / Fold change /veh TMPRSS6 (11731388_a_at) / RFU KRTAP10-2 (11738614_at) / Fold change /veh KRTAP10-2 (11738614_at) / RFU ARHGAP8 /// PRR5-ARHGAP8 (11727945_x_at) / Fold change /veh ARHGAP8 /// PRR5-ARHGAP8 (11727945_x_at) / RFU KRTAP5-7 /// NADSYN1 (11734609_at) / Fold change /veh KRTAP5-7 /// NADSYN1 (11734609_at) / RFU RASL12 (11751679_a_at) / Fold change /veh RASL12 (11751679_a_at) / RFU CDKN2B (11736163_a_at) / Fold change /veh CDKN2B (11736163_a_at) / RFU PRF1 (11729649_at) / Fold change /veh PRF1 (11729649_at) / RFU, ZNF638 /// ZNF638-IT1 / Fold change vs veh, ZNF638 /// ZNF638-IT1 / RFU, PANK3 / Fold change vs veh, PANK3 / RFU, SH3YL1 / Fold change vs veh, SH3YL1 / RFU, ZEB2 / Fold change vs veh, ZEB2 / RFU, NRIP1 / Fold change vs veh, NRIP1 / RFU, PTTG1IP / Fold change vs veh, PTTG1IP / RFU, CAPN2 / Fold change vs veh, CAPN2 / RFU, MED14 / Fold change vs veh, MED14 / RFU, SNORA58 / Fold change vs veh, SNORA58 / RFU, C1orf63 / Fold change vs veh, C1orf63 / RFU, LRRFIP1 / Fold change vs veh, LRRFIP1 / RFU, NDUFAF7 / Fold change vs veh, NDUFAF7 / RFU, SLC12A2 / Fold change vs veh, SLC12A2 / RFU, IBTK / Fold change vs veh, IBTK / RFU, ESF1 / Fold change vs veh, ESF1 / Fold change vs veh, TMEM50B / RFU, TAOK1 / Fold change vs veh, TAOK1 / RFU, ACBD3 / Fold change vs veh, ACBD3 / RFU, TMA16 / Fold change vs veh, TMA16 / RFU, RWDD3 / Fold change vs veh, RWDD3 / RFU, BCAT1 / Fold change vs veh, BCAT1 / RFU, EDEM3 / Fold change vs veh, EDEM3 / RFU, TMEM33 / Fold change vs veh, TMEM33 / RFU, WDR75 / Fold change vs veh, WDR75 / RFU, AHCTF1 / Fold change vs veh, AHCTF1 / RFU, TFRC / Fold change vs veh, TFRC / RFU, ZDHHC17 / Fold change vs veh, ZDHHC17 / RFU, NOM1 / Fold change vs veh, NOM1 / RFU, ARL8B / Fold change vs veh, ARL8B / RFU, ZBTB11 / Fold change vs veh, ZBTB11 / RFU, TAMM41 / Fold change vs veh, TAMM41 / RFU, KIAA1704 /// LOC100996395 / Fold change vs veh, KIAA1704 /// LOC100996395 / RFU, ING1 / Fold change vs veh, ING1 / RFU, TRMT61B / Fold change vs veh, TRMT61B / RFU, FUBP3 / Fold change vs veh, FUBP3 / RFU, TP53 / Fold change vs veh, TP53 / RFU, TNKS2 / Fold change vs veh, TNKS2 / RFU, ZFP14 / Fold change vs veh, ZFP14 / RFU, ACTR2 / Fold change vs veh, ACTR2 / RFU, PPP3R1 / Fold change vs veh, PPP3R1 / RFU, PIK3R1 / Fold change vs veh, PIK3R1 / RFU, HNRNPA1 / Fold change vs veh, HNRNPA1 / RFU, RNF170 / Fold change vs veh, RNF170 / RFU, ZNF28 / Fold change vs veh, ZNF28 / RFU, RNGTT / Fold change vs veh, RNGTT / RFU, OGT / Fold change vs veh, OGT / RFU, BRD1 / Fold change vs veh, BRD1 / RFU, MARS / Fold change vs veh, MARS / RFU, ZNF655 / Fold change vs veh, ZNF655 / RFU, FAHD1 / Fold change vs veh, FAHD1 / RFU, BDP1 / Fold change vs veh, BDP1 / RFU, LRRCC1 / Fold change vs veh, LRRCC1 / RFU, ARID1A / Fold change vs veh, ARID1A / RFU, ZNF146 / Fold change vs veh, ZNF146 / RFU, ZNF330 / Fold change vs veh, ZNF330 / RFU, GPN3 / Fold change vs veh, GPN3 / RFU, C9orf123 / Fold change vs veh, C9orf123 / RFU, N4BP2L2 / Fold change vs veh, N4BP2L2 / RFU, ARFIP1 / Fold change vs veh, ARFIP1 / RFU, FAM179B / Fold change vs veh, FAM179B / RFU, BCL10 / Fold change vs veh, BCL10 / RFU, UHRF1BP1L / Fold change vs veh, UHRF1BP1L / RFU, BET1 / Fold change vs veh, BET1 / RFU, CNOT2 / Fold change vs veh, CNOT2 / RFU, ZNF268 / Fold change vs veh, ZNF268 / Fold change vs veh, ZNF507 / RFU, DGCR2 / Fold change vs veh, DGCR2 / RFU, WDSUB1 / Fold change vs veh, WDSUB1 / Fold change vs veh, HSP90B1 /// MIR3652 / RFU, ADSS / Fold change vs veh, ADSS / RFU, GK / Fold change vs veh, GK / RFU, ZNF148 / Fold change vs veh, ZNF148 / RFU, TAF9 / Fold change vs veh, TAF9 / RFU, SLC1A5 / Fold change vs veh, SLC1A5 / RFU, SLMO2 / Fold change vs veh, SLMO2 / RFU, ABCC4 / Fold change vs veh, ABCC4 / RFU, LOC101060439 /// RAP1B / Fold change vs veh, LOC101060439 /// RAP1B / RFU, RFX7 / Fold change vs veh, RFX7 / RFU, GTPBP10 / Fold change vs veh, GTPBP10 / RFU, CNEP1R1 / Fold change vs veh, CNEP1R1 / RFU, BIVM-ERCC5 /// ERCC5 / Fold change vs veh, BIVM-ERCC5 /// ERCC5 / RFU, ILF3 / Fold change vs veh, ILF3 / RFU 11762660_at / Fold change /veh 11762660_at / RFU VCAN (11757783_s_at) / Fold change /veh VCAN (11757783_s_at) / RFU DDX43 (11728927_at) / Fold change /veh DDX43 (11728927_at) / RFU KRT8 (11758188_x_at) / Fold change /veh KRT8 (11758188_x_at) / RFU NKD1 (11759106_at) / Fold change /veh NKD1 (11759106_at) / RFU SRD5A1 (11742802_a_at) / Fold change /veh SRD5A1 (11742802_a_at) / RFU TPSAB1 /// TPSB2 (11721975_s_at) / Fold change /veh TPSAB1 /// TPSB2 (11721975_s_at) / RFU GSTM3 (11746129_a_at) / Fold change /veh GSTM3 (11746129_a_at) / RFU IL23R (11737362_x_at) / Fold change /veh IL23R (11737362_x_at) / RFU TMEM51 (11727254_a_at) / Fold change /veh TMEM51 (11727254_a_at) / RFU PIWIL2 (11732686_x_at) / Fold change /veh PIWIL2 (11732686_x_at) / RFU ORM1 (11744905_x_at) / Fold change /veh ORM1 (11744905_x_at) / RFU CCDC152 (11743942_at) / Fold change /veh CCDC152 (11743942_at) / RFU ECM1 (11717891_a_at) / Fold change /veh ECM1 (11717891_a_at) / RFU IL23R (11748794_a_at) / Fold change /veh IL23R (11748794_a_at) / RFU TNFAIP8L3 (11732012_x_at) / Fold change /veh TNFAIP8L3 (11732012_x_at) / RFU MBOAT4 (11741988_at) / Fold change /veh MBOAT4 (11741988_at) / RFU 11764193_at / Fold change /veh 11764193_at / RFU TMEM53 (11763286_at) / Fold change /veh TMEM53 (11763286_at) / RFU MAGEB2 (11727129_at) / Fold change /veh MAGEB2 (11727129_at) / RFU TMEM200A (11744735_a_at) / Fold change /veh TMEM200A (11744735_a_at) / RFU CCDC152 (11751479_a_at) / Fold change /veh CCDC152 (11751479_a_at) / RFU FAM211A (11726209_a_at) / Fold change /veh FAM211A (11726209_a_at) / RFU RGS16 (11746705_a_at) / Fold change /veh RGS16 (11746705_a_at) / RFU VCAN (11755009_s_at) / Fold change /veh VCAN (11755009_s_at) / RFU RHOB (11743442_s_at) / Fold change /veh RHOB (11743442_s_at) / RFU RGS16 (11720943_a_at) / Fold change /veh RGS16 (11720943_a_at) / RFU RGS16 (11720944_at) / Fold change /veh RGS16 (11720944_at) / RFU, VPS4B / Fold change vs veh, VPS4B / RFU, CREB1 / Fold change vs veh, CREB1 / RFU, DNAJC13 / Fold change vs veh, DNAJC13 / RFU, GNAQ / Fold change vs veh, GNAQ / RFU, CDK5R1 / Fold change vs veh, CDK5R1 / RFU, ZRANB3 / Fold change vs veh, ZRANB3 / RFU, CUL4A / Fold change vs veh, CUL4A / RFU, CCNY / Fold change vs veh, CCNY / RFU, UFL1 / Fold change vs veh, UFL1 / RFU, COG3 / Fold change vs veh, COG3 / RFU, DIAPH2 / Fold change vs veh, DIAPH2 / RFU, SKA2 / Fold change vs veh, SKA2 / RFU, AFF3 / Fold change vs veh, AFF3 / RFU, LMF1 / Fold change vs veh, LMF1 / RFU, IPO11 / Fold change vs veh, IPO11 / RFU, DFFB / Fold change vs veh, DFFB / RFU, FOXP1 / Fold change vs veh, FOXP1 / RFU, CARD8 / Fold change vs veh, CARD8 / RFU, STRN3 / Fold change vs veh, STRN3 / RFU, ADK / Fold change vs veh, ADK / RFU, RASSF2 / Fold change vs veh, RASSF2 / RFU, WIPF1 / Fold change vs veh, WIPF1 / RFU, LARP1B / Fold change vs veh, LARP1B / RFU, RASA1 / Fold change vs veh, RASA1 / RFU, RB1 / Fold change vs veh, RB1 / RFU, PPFIA1 / Fold change vs veh, PPFIA1 / RFU, MAT2A / Fold change vs veh, MAT2A / RFU, CCT5 / Fold change vs veh, CCT5 / RFU, WDR92 / Fold change vs veh, WDR92 / RFU, CUX1 / Fold change vs veh, CUX1 / RFU, TTC7A / Fold change vs veh, TTC7A / RFU, TMEM135 / Fold change vs veh, TMEM135 / RFU, DEPTOR / Fold change vs veh, DEPTOR / RFU, CPM / Fold change vs veh, CPM / RFU, DNAJB6 / Fold change vs veh, DNAJB6 / RFU, CACNA2D3 / Fold change vs veh, CACNA2D3 / RFU, DTX4 / Fold change vs veh, DTX4 / RFU, TFCP2 / Fold change vs veh, TFCP2 / RFU, GMCL1 /// GMCL1P1 / Fold change vs veh, GMCL1 /// GMCL1P1 / RFU, AEBP2 / Fold change vs veh, AEBP2 / RFU, SNHG1 /// SNORD22 /// SNORD25 /// SNORD26 /// SNORD27 /// SNORD28 /// SNORD29 /// SNORD31 / Fold change vs veh, SNHG1 /// SNORD22 /// SNORD25 /// SNORD26 /// SNORD27 /// SNORD28 /// SNORD29 /// SNORD31 / Fold change (Aza/veh), C12orf56 (ProbeSet 11735607_a_at) / Fold change (ACY-1035/veh), C12orf56 (ProbeSet 11735607_a_at) / Fold change (Aza/veh), FGFR1OP (ProbeSet 11751329_s_at) / Fold change (ACY-1035/veh), FGFR1OP (ProbeSet 11751329_s_at) / Fold change (Aza/veh), VPS36 (ProbeSet 11739960_a_at) / Fold change (ACY-1035/veh), VPS36 (ProbeSet 11739960_a_at) / RFU SYPL1 (11715823_x_at) / Fold change /veh SYPL1 (11715823_x_at) / RFU IGFBP7 (11715501_s_at) / Fold change /veh IGFBP7 (11715501_s_at) / RFU REEP3 (11722064_at) / Fold change /veh REEP3 (11722064_at) / RFU IGLL1 (11728026_x_at) / Fold change /veh IGLL1 (11728026_x_at): dose or concentration left out as unconfirmed
Details: ProbeSet 11717914_a_at; LIST B

With `Nc1ccc(-c2cccs2)cc1NC(=O)c1ccc2c(c1)cc(C1CC1)n2CCN1CCOCC1` [ACY-1035] the “Fold change vs veh, BIVM-ERCC5 /// ERCC5” value was 1.00.
